Measured values from patent US20240263133A1, “PROCESS FOR THE ISOLATION AND CULTURE OF STRAINS, THE STRAINS, USE THEREOF, MEDIA FOR CULTURING THEREOF AND A FORM OF SCYTONEMIN” (UVERA SA, priority 2021, published 2024).

Assays:
[1] = cited from earlier work
[2] = Degree of scytonemin dispersion in selected solutions used in cosmetics; assay type: physicochemical; conditions: for dispersion level: shaker 1 min, ultrasonic bath 10 min
Protocol: 0.5 mg scytonemin was weighed out on an analytical balance and suspended in 1 g of the solution: • 1) Propylene glycol (INCI: Propylene Glycol) • 2) Refined apricot oil (INCI: Prunus Armeniaca (Apricot) Kernel Oil) • 3) Glycerin (INCI: Glycerin) • 4) Isohexadecane (INCI: Isohexadecane) • 5) 2-octyldodecan-1-ol ODD (INCI: Octyldodecanol) • 6) SLP Emulsifier (INCI: Sorbitan Laurate/Polyglyceryl-4 Laurate/Dilauryl Citrate)
Subsequently, the sample was mixed using a shaker for approx. 1 min and maintained for 10 min in an ultrasonic bath to achieve a higher dispersion level.
0.5 mg of scytonemin was weighed out on an analytical balance and suspended in 5 g of the composition: • 7) glycerin+glycerol stearate+water+silica+alcohol
The sample was stirred for 5 min using a laboratory stirrer

[3] = Storage stability in room conditions, absorbance spectra before and after; assay type: physicochemical; conditions: 25° C., 10 months
Protocol: The compound prepared in Example 1 was stored in room conditions (temp. 25° C.) for 10 months. Absorbance spectra before and after the storage test are identical, which confirms stability of the compound. […] The crystalline form of scytonemin of the invention is stable.

[4] = UV absorption, specific extinction in DMSO by spectrophotometer; assay type: physicochemical; conditions: 1% by weight, 1 cm cuvette
Protocol: A scytonemin sample obtained according to Example 1 was dissolved in DMSO (dimethylsulfoxide) to a concentration of 1% by weight and subsequently, with a spectrophotometer used according to the standard procedures (manufacturer: Varian, model: CARY 100 Scan) absorbance was measured for two wavelengths (305 and 393 nm) in a cuvette with 1 cm thickness.

[5] = Thermogravimetric/differential thermal analysis (TG/DTA), thermal decomposition; assay type: physicochemical; conditions: argon, heating 15 ° C./minute, 3.7 mg
Protocol: 3.7 mg of the sample was weighed out into an alumina crucible and 34.6 mg of pure gold wire (99.999%) was added to balance the rod weight with the microbalance counterweight.
• Argon flow at 2 atm • Sample weight: 3.7 mg • Crucible: 100 μL Al2O3 • Reference crucible: Al2O3 • Temperature ramp:
Weight losses in successive stages were calculated based on the thermogravimetric curve, and the presence of exothermic and endothermic processes during sample heating were determined from the heat flow curve.

dispersion level ([2]; 0.5 mg in 1 g 2-octyldodecan-1-ol ODD (solution 5)): Relatively high dispersion level
dispersion level ([2]; 0.5 mg in 1 g SLP Emulsifier (solution 6)): Low dispersion level
dispersion level ([2]; 0.5 mg in 1 g glycerin (solution 3)): Low dispersion level
dispersion level ([2]; 0.5 mg in 1 g isohexadecane (solution 4)): High dispersion level
dispersion level ([2]; 0.5 mg in 1 g propylene glycol (solution 1)): High dispersion level
dispersion level ([2]; 0.5 mg in 1 g refined apricot oil (solution 2)): Very low dispersion level
absorbance spectra before and after the storage test [3]: identical
Specific extinction/1% at 305 nm ([4]; 305 nm): 330
Specific extinction/1% to 393 nm ([4]; 393 nm): 730
Maximum of weight loss (decomposition maximum) [5]: 380.3 °C
T range of decomposition [5]: 365.4-380.3 °C
Substance: scytonemin
characteristic absorbance spectra after continuous UVA irradiation ([1]; 2 months, UVA 5 W/m2): practically unchanged
characteristic absorbance spectra after heating ([1]; heating to 60° C. for 2 months): practically unchanged
dispersion / dissolution in raw material base ([2]; 0.5 mg in 5 g glycerin+glycerol stearate+water+silica+alcohol (composition 7), stirred 5 min): did not dissolve but disintegrated into smaller particles
